This note sets out measurements from patent publication EP0565593B1, “REDUCING PESTICIDAL INTERACTIONS IN CROPS” (priority 1990, dated 1992).

Several values for one entry are separate records, joined by “and”; a condition that tells them apart may be missing. Equal entries are not always repeated. Where two headings read alike, the source gives them in different places.

Data set [1] relates to cotton (COTT). Description: Multi-crop greenhouse test, COUNTER 15G and safener PPI, herbicide POE (Examples 62-64; Tables 61-63). The conditions noted are these: Gossypium hirsutum, Table 63, Biocide No. 1 8.96 Kg/Ha, antidote 4.48 Kg/Ha PPI where in label. In kind it is in vivo. The arrangement: dose or concentration left out as unconfirmed. The procedure: (§1) Tests according to this invention in various crops indicate widespread application of the invention. In Examples 62-66 below are described tests with a variety of herbicides contacted with COUNTER® 15G in the presence and absence of MON-7400 (Antidote No. 12); MON-13900 (No. 1); MON-4660 (No. 16) and flurazole (No. 16). Those tests were conducted according to Procedures IV or V described above and illustrated further in other foregoing examples. Plants used in all tests were, for crops (as abbreviated in parentheses); cotton (COTT); soybean (SOBE); CORN, grain sorghum (GRSO); wheat (WHEA) and RICE, and the weeds giant foxtail (GIFT) and velvetleaf (VELE). The data in the tables below represent averages of two replications.
(§2) In this test the crops and weeds were planted 1.3 cm deep in 13.7 cm X 27.7 cm pans containing Dupo silt loam soil. The test safeners were applied in acetone solution and COUNTER 15G as dry granules to soil cover layers and incorporated by shaking in a bag. Treated cover layers were placed on seeded pans which were transferred to greenhouse benches and subirrigated. Herbicide was applied POE six (6) days after PPI initiation and observations of plant injury made ten (10) days later; results are shown in Table 61. The herbicide used in this example was BEACON (No. 8).
(§3) The test procedure described in Example 62 was repeated using ACCENT® (Herbicide No. 7) as the herbicide; the biocide and safeners were the same.

For data set [2], the system named is Corn. Kind of data set: Multi-crop greenhouse test, herbicide POE (Examples 62-64; Tables 61-63). In kind it is in vivo. The arrangement: inhibition: dose or concentration left out as unconfirmed. The following applies: Zea mays, Table 63, Biocide No. 1 8.96 Kg/Ha, antidote 4.48 Kg/Ha PPI where in label. The procedure: as §1, §2, §3
The test system of data set [3] is Giant foxtail (GIFT). The description is as above. It counts as in vivo. The arrangement: dose or concentration left out as unconfirmed. The following applies: Setaria faberi, Table 63, Biocide No. 1 8.96 Kg/Ha, antidote 4.48 Kg/Ha PPI where in label. As to the method:
as §1, §2, §3

In data set [4] the test system is RICE. The data set is described as above. In kind it is in vivo. The arrangement: dose or concentration left out as unconfirmed. The conditions noted are these: Oryza sativa, Table 63, Biocide No. 1 8.96 Kg/Ha, antidote 4.48 Kg/Ha PPI where in label. The procedure:
as §1, §2, §3

The test system of data set [5] is Velvetleaf (VELE). Described as above. The arrangement: dose or concentration left out as unconfirmed. It counts as in vivo. The following applies: Abutilon theophrasti, Table 63, Biocide No. 1 8.96 Kg/Ha, antidote 4.48 Kg/Ha PPI where in label. The procedure: as §1, §2, §3
Data set [6] has as its system grain sorghum (GRSO). The description is as above. In kind it is in vivo. The arrangement: dose or concentration left out as unconfirmed. The following applies: Biocide No. 1 8.96 Kg/Ha, antidote 4.48 Kg/Ha PPI where in label. The procedure:
as §1, §2, §3

Data set [7] has as its system soybean (SOBE). The description is as above. In kind it is in vivo. The arrangement: dose or concentration left out as unconfirmed. The conditions noted are these: Glycine max, Table 63, Biocide No. 1 8.96 Kg/Ha, antidote 4.48 Kg/Ha PPI where in label. The procedure: as §1, §2, §3
Data set [8] deals with wheat (WHEA). The data set is described as above. In kind it is in vivo. The arrangement: dose or concentration left out as unconfirmed. The conditions noted are these: Triticum aestivum, Table 63, Biocide No. 1 8.96 Kg/Ha, antidote 4.48 Kg/Ha PPI where in label. As to the method:
as §1, §2, §3

Data set [9] deals with Corn. Description: Field trials, PPI, PRE and POE herbicide applications with terbufos (Example 7). In kind it is in vivo. The following applies: mean of five locations, soil-applied insecticide prior to planting. An excerpt:
This example summarizes the results of one series of field trials from a plurality of locations and soil types wherein test chemicals were applied in various modes including pre-plant incorporated (PPI), post emergence (POE) and preemergence (PRE) with and without a safener (antidote). Test Chemicals were Herbicide Nos 1, 2, 3 and 7-9; Insecticide No. 1 and Antidote No. 1.
In these trials Insecticide No. 1 (terbufos) was T-banded or furrow applied at labeled rates prior to planting corn. PPI herbicide treatments were applied prior to insecticide applications; PRE treatments were applied after the insecticide application either prior to or after seeding the corn. POE herbicide applications were made at 2 corn-growth stages, i.e., early post (EP) at the 2-3 leaf stage and late post (LP) at the 4-7 leaf stage. Plots were small plot with 3 replications in a randomized complete block design. In the PRE and PPI herbicide treatments, Antidote No. 1 was applied as a tankmix in both treatments. In the POE herbicide treatments, that antidote was applied as a tank mix with the herbicide at the EP and LP stages.

The subject of data set [10] is Shattercane (SHCA). In kind it is in vivo.
Data set [11] deals with Velvetleaf (VELE). It counts as in vivo, Abutilon theophrasti.
Data set [12] has as its system Corn.
The mark [13] stands for this setting: Herb. No. 18 (PURSUIT) 0.009 Kg/Ha POE.
[14] abbreviates: Herb. No. 18 (PURSUIT) 0.035 Kg/Ha POE.
The mark [15] stands for this setting: Herb. No. 18 (PURSUIT) 0.14 Kg/Ha POE.
The mark [16] stands for this setting: Herbicide No. 7 0.28 Kg/Ha POE alone, 13 days after planting.
The mark [17] stands for this setting: Herbicide No. 7 0.28 POE + Biocide No. 1 8.96 Kg/Ha PPI, 13 days after planting.
[18] abbreviates: Herbicide No. 7 alone, POE 5 DAP, observed 13 DAP.
The mark [19] stands for this setting: Table 14: no antidote, Herbicide No. 7 0.84 Kg/Ha POE and/or Biocide No. 2 8.96 Kg/Ha PPI, per label, 13 days after planting.
Setting [20] is: Table 50, Herbicide No. 7 0.56 Kg/Ha POE, where applied Biocide No. 8 8.96 kg/Ha and antidote 4.48 Kg/Ha PPI, observed 9 days after POE.
The mark [21] stands for this setting: no antidote, […], 13 days after planting.

Usually inhibition stands for the share of the control response that was lost under treatment. Regarding `CCc1cnc(C2=NC(C)(C(C)C)C(=O)N2)c(C(=O)O)c1` (stereo not shown) [Herb. No. 18], the inhibition was 40% in [1] (setting [13]); 45% in data set [1] (setting [14]); 50% in data set [1] (setting [15]); 5% in data set [2] (setting [13]); 25% in data set [2] (setting [14]); 40% in data set [2] (setting [15]). Also, the inhibition in data set [3] (setting [13]) was 60%; in data set [3] (setting [14]), 80%; in data set [3] (setting [15]), 80%; in [4] (setting [13]), 20%; in [4] (setting [14]) it was 45%; in [4] (setting [15]), 60%. Moreover, the inhibition was determined as 75% in data set [5] (setting [13]); 95% in data set [5] (setting [14]); 100% in data set [5] (setting [15]); 60% in [6] (Table 63, Herb. No. 18 (PURSUIT) 0.009 Kg/Ha POE); 65% in data set [6] (Table 63, Herb. No. 18 (PURSUIT) 0.035 Kg/Ha POE); 75% in data set [6] (Table 63, Herb. No. 18 (PURSUIT) 0.14 Kg/Ha POE). In addition, the inhibition in data set [7] (setting [13]) turned out to be 5%; in data set [7] (setting [14]) it was 10%; in data set [7] (setting [15]), 10%; in [8] (setting [13]) it was 0%; in data set [8] (setting [14]), 20%; in data set [8] (setting [15]), 35%.

Consider `COc1cc(OC)nc(NC(=O)NS(=O)(=O)c2ncccc2C(=O)N(C)C)n1` [Herbicide No. 7, reference compound], for which the “interaction with Insecticide No. 1 after POE herbicide” value in data set [9] is listed as “Significant increased growth reduction”. The “% Inhibition SHCA” value worked out at 70% in data set [10] (setting [16]); 75% in data set [10] (setting [17]); 75% in data set [10] (setting [18]); 75% in data set [10] (setting [19]); 75% in [10] (setting [20]); 75% in data set [10] (in vivo). In addition, in [10] (setting [21]), the “% Inhibition SHCA” value was 75%. The “% Inhibition VELE” value was 60% in data set [11] (setting [16]); 65% in data set [11] (setting [17]); 70% in data set [11] (setting [18]); 65% in data set [11] (setting [19]); 80% in data set [11] (setting [20]); 60% and 75% in [11] (in vivo). Also, in data set [11] (setting [21]), the “% Inhibition VELE” value was 60%. The “safety to corn” value in data set [12] (ACCENT alone, no insecticide, 0.28 to 0.84 kg/ha) was “completely safe”. Besides, the “% Inhibition Corn” value in [12] (setting [16]) came to 0%; in data set [12] (setting [17]) it was 60%; in [12] (setting [18]) it was 0%; in data set [12] (setting [19]), 0%; in [12] (setting [20]), 10%; in [12] (setting [21]), 0%.
